Measurements: patent publication US12264134B2 (Merck Sharp & Dohme LLC, priority 2018, dated 2025)
pIC50: −log10 of the molar value.

Target: IDO1 (Homo sapiens, UniProt P14902)
Experiment: IDO1 Cellular Assay in HeLa Cells Stimulated with IFNγ
Format: cell-based
Conditions: read-out: HeLa Cell Potency, IC50

Chain of IDO1 (P14902 whole entry): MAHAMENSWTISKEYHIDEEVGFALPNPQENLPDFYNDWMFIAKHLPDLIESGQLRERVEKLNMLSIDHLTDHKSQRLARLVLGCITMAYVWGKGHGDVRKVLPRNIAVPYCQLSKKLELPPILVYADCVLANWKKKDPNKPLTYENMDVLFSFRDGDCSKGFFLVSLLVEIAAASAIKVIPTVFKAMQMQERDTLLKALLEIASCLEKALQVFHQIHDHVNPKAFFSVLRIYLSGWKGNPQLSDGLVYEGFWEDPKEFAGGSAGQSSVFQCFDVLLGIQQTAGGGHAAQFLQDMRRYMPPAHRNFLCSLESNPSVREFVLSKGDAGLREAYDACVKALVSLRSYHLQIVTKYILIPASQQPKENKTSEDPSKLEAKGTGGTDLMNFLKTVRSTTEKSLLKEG

pIC50 | SMILES
7.17 | Cc1c(Cl)cccc1N1CCN(C(=O)Cn2nc(C(=O)N3CCC(NCCO)CC3)c3c2C[C@H]2C[C@@H]32)C2(CC2)C1 [Example 313, 1-[7-(3-chloro-2-methylphenyl)-4,7-diazaspiro[2.5]octan-4-yl]-2-[(3bR,4aR)-3-{4-[(2-hydroxyethyl)amino]piperidine-1-carbonyl}-3b,4,4a,5-tetrahydro-1H-cyclopropa[3,4]cyclopenta[1,2-c]pyrazol-1-yl]ethan-1-one]
8.65 | Cc1c(Cl)cccc1N1CCN(C(=O)Cn2nc(C(=O)N3CCN(CCO)CC3)c3c2C[C@H]2C[C@@H]32)C2(CC2)C1 [Example 316, 1-[7-(3-chloro-2-methylphenyl)-4,7-diazaspiro[2.5]octan-4-yl]-2-{(3bR,4aR)-3-[4-(2-hydroxyethyl)piperazine-1-carbonyl]-3b,4,4a,5-tetrahydro-1H-cyclopropa[3,4]cyclopenta[1,2-c]pyrazol-1-yl}ethan-1-one]
8.85 | Cc1c(F)ccc(N2CCN(C(=O)Cn3nc(C(=O)N4CC[C@@H](O)[C@H](F)C4)c4c3C[C@H]3C[C@@H]43)C3(CC3)C2)c1C [Example 318, 1-[7-(4-fluoro-2,3-dimethylphenyl)-4,7-diazaspiro[2.5]octan-4-yl]-2-{(3bR,4aR)-3-[(3R,4R)-3-fluoro-4-hydroxypiperidine-1-carbonyl]-3b,4,4a,5-tetrahydro-1H-cyclopropa[3,4]cyclopenta[1,2-c]pyrazol-1-yl}ethan-1-one]
9.11 | Cc1c(N2CCN(C(=O)Cn3nc(C(=O)N4CCC(O)(CF)CC4)c4c3C[C@H]3C[C@@H]43)CC2)cccc1C(F)(F)F [Example 336, 2-((3bR,4aR)-3-(4-(fluoromethyl)-4-hydroxypiperidine-1-carbonyl)-3b,4,4a,5-tetrahydro-1H-cyclopropa[3,4]cyclopenta[1,2-c]pyrazol-1-yl)-1-(4-(2-methyl-3-(trifluoromethyl)phenyl)piperazin-1-yl)ethanone]
8.55 | Cc1c(N2CCN(C(=O)Cn3nc(C(=O)N4CCN(C(=O)CO)CC4)c4c3C[C@H]3C[C@@H]43)CC2)cccc1C(F)(F)F [Example 337, 2-hydroxy-1-(4-((3bR,4aR)-1-(2-(4-(2-methyl-3-(trifluoromethyl)phenyl)piperazin-1-yl)-2-oxoethyl)-3b,4,4a,5-tetrahydro-1H-cyclopropa [3,4]cyclopenta[1,2-c]pyrazole-3-carbonyl)piperazin-1-yl)ethanone]
8.61 | CC(=O)NC1CCN(C(=O)c2nn(CC(=O)N3CCN(c4cccc(C(F)(F)F)c4C)CC3)c3c2[C@@H]2C[C@@H]2C3)CC1 [Example 340, N-(1-((3bR,4aR)-1-(2-(4-(2-methyl-3-(trifluoromethyl)phenyl)piperazin-1-yl)-2-oxoethyl)-3b,4,4a,5-tetrahydro-1H-cyclopropa[3,4]cyclopenta[1,2-c]pyrazole-3-carbonyl)piperidin-4-yl)acetamide]
8.79 | Cc1c(N2CCN(C(=O)Cn3nc(C(=O)N4CCC(OCCO)CC4)c4c3C[C@H]3C[C@@H]43)CC2)cccc1C(F)(F)F [Example 341, 2-((3bR,4aR)-3-(4-(2-hydroxyethoxy)piperidine-1-carbonyl)-3b,4,4a,5-tetrahydro-1H-cyclopropa[3,4]cyclopenta[1,2-c]pyrazol-1-yl)-1-(4-(2-methyl-3-(trifluoromethyl)phenyl)piperazin-1-yl)ethanone]
8.67 | Cc1c(N2CCN(C(=O)Cn3nc(C(=O)N4CCO[C@H](CO)C4)c4c3C[C@H]3C[C@@H]43)CC2)cccc1C(F)(F)F [Example 342, 2-((3bR,4aR)-3-((S)-2-(hydroxymethyl)morpholine-4-carbonyl)-3b,4,4a,5-tetrahydro-1H-cyclopropa[3,4]cyclopenta[1,2-c]pyrazol-1-yl)-1-(4-(2-methyl-3-(trifluoromethyl)phenyl)piperazin-1-yl)ethanone]
8.72 | Cc1c(N2CCN(C(=O)Cn3nc(C(=O)N4CCO[C@@H](CO)C4)c4c3C[C@H]3C[C@@H]43)CC2)cccc1C(F)(F)F [Example 343, 2-((3bR,4aR)-3-((R)-2-(hydroxymethyl)morpholine-4-carbonyl)-3b,4,4a,5-tetrahydro-1H-cyclopropa [3,4]cyclopenta[1,2-c]pyrazol-1-yl)-1-(4-(2-methyl-3-(trifluoromethyl)phenyl)piperazin-1-yl)ethanone]
8.19 | Cc1c(C(F)F)cccc1N1CCN(C(=O)Cn2nc(C(=O)N3CCN(C(=O)CO)CC3)c3c2C[C@H]2C[C@@H]32)CC1 [Example 344, 1-(4-(3-(difluoromethyl)-2-methylphenyl)piperazin-1-yl)-2-((3bR,4aR)-3-(4-(2-hydroxyacetyl)piperazine-1-carbonyl)-3b,4,4a,5-tetrahydro-1H-cyclopropa[3,4]cyclopenta[1,2-c]pyrazol-1-yl)ethanone]
8.73 | Cc1c(C(F)F)cccc1N1CCN(C(=O)Cn2nc(C(=O)N3CCC(OCCO)CC3)c3c2C[C@H]2C[C@@H]32)CC1 [Example 345, 1-(4-(3-(difluoromethyl)-2-methylphenyl)piperazin-1-yl)-2-((3bR,4aR)-3-(4-(2-hydroxyethoxy)piperidine-1-carbonyl)-3b,4,4a,5-tetrahydro-1H-cyclopropa[3,4]cyclopenta[1,2-c]pyrazol-1-yl)ethanone]
9.07 | Cc1c(C(F)F)cccc1N1CCN(C(=O)Cn2nc(C(=O)N3CCC(O)CC3)c3c2C[C@H]2C[C@@H]32)CC1 [Example 346, 1-(4-(3-(difluoromethyl)-2-methylphenyl)piperazin-1-yl)-2-((3bR,4aR)-3-(4-hydroxypiperidine-1-carbonyl)-3b,4,4a,5-tetahydro-1H-cyclopropa[3,4]cyclopenta[1,2-c]pyrazol-1-yl)ethanone]
8.56 | Cc1c(C(F)F)cccc1N1CCN(C(=O)Cn2nc(C(=O)N3CC[C@@H](O)[C@@H](F)C3)c3c2C[C@H]2C[C@@H]32)CC1 [Example 347, 1-(4-(3-(difluoromethyl)-2-methylphenyl)piperazin-1-yl)-2-((3bR,4aR)-3-((3S,4R)-3-fluoro-4-hydroxypiperidine-1-carbonyl)-3b,4,4a,5-tetrahydro-1H-cyclopropa[3,4]cyclopenta[1,2-c]pyrazol-1-yl)ethanone]
8.86 | Cc1c(C(F)F)cccc1N1CCN(C(=O)Cn2nc(C(=O)N3CC[C@H](O)[C@H](F)C3)c3c2C[C@H]2C[C@@H]32)CC1 [Example 348, 1-(4-(3-(difluoromethyl)-2-methylphenyl)piperazin-1-yl)-2-((3bR,4aR)-3-((3R,4S)-3-fluoro-4-hydroxypiperidine-1-carbonyl)-3b,4,4a,5-tetrahydro-1H-cyclopropa[3,4]cyclopenta[1,2-c]pyrazol-1-yl)ethanone]
8.35 | Cc1c(C(F)F)cccc1N1CCN(C(=O)Cn2nc(C(=O)N3CCO[C@H](CO)C3)c3c2C[C@H]2C[C@@H]32)CC1 [Example 349, 1-(4-(3-(difluoromethyl)-2-methylphenyl)piperazin-1-yl)-2-((3bR,4aR)-3-((S)-2-(hydroxymethyl)morpholine-4-carbonyl)-3b,4,4a,5-tetrahydro-1H-cyclopropa[3,4]cyclopenta[1,2-c]pyrazol-1-yl)ethanone]
8.25 | Cc1c(C(F)F)cccc1N1CCN(C(=O)Cn2nc(C(=O)N3CCO[C@@H](CO)C3)c3c2C[C@H]2C[C@@H]32)CC1 [Example 350, 1-(4-(3-(difluoromethyl)-2-methylphenyl)piperazin-1-yl)-2-((3bR,4aR)-3-((R)-2-(hydroxymethyl)morpholine-4-carbonyl)-3b,4,4a,5-tetrahydro-1H-cyclopropa[3,4]cyclopenta[1,2-c]pyrazol-1-yl)ethanone]
8.62 | Cc1c(Cl)cccc1N1CCN(C(=O)Cn2nc(C(=O)N3CCC(O)C(C)C3)c3c2C[C@H]2C[C@@H]32)CC1 (stereo partly drawn) [Example 354, 1-(4-(3-chloro-2-methylphenyl)piperazin-1-yl)-2-((3bR,4aR)-3-(4-hydroxy-3-methylpiperidine-1-carbonyl)-3b,4,4a,5-tetrahydro-1H-cyclopropa[3,4]cyclopenta[1,2-c]pyrazol-1-yl)ethanone]
9.14 | CC(=O)NC1CCN(C(=O)c2nn(CC(=O)N3CCN(c4cccc(C)c4C)CC34CC4)c3c2[C@@H]2C[C@@H]2C3)CC1 [Example 356, N-(1-((3bR,4aR)-1-(2-(7-(2,3-dimethylphenyl)-4,7-diazaspiro[2.5]octan-4-yl)-2-oxoethyl)-3b,4,4a,5-tetrahydro-1H-cyclopropa[3,4]cyclopenta[1,2-c]pyrazole-3-carbonyl)piperidin-4-yl)acetamide]
8.80 | Cc1cccc(N2CCN(C(=O)Cn3nc(C(=O)N4CCC(O)(CF)CC4)c4c3C[C@H]3C[C@@H]43)C3(CC3)C2)c1C [Example 358]
8.71 | Cc1cccc(N2CCN(C(=O)Cn3nc(C(=O)N4CC[C@H](O)[C@@H](F)C4)c4c3C[C@H]3C[C@@H]43)C3(CC3)C2)c1C [Example 359]
8.60 | Cc1cccc(N2CCN(C(=O)Cn3nc(C(=O)N4CCO[C@H](CO)C4)c4c3C[C@H]3C[C@@H]43)C3(CC3)C2)c1C [Example 363, 1-(7-(2,3-dimethylphenyl)-4,7-diazaspiro[2.5]octan-4-yl)-2-((3bR,4aR)-3-((S)-2-(hydroxymethyl)morpholine-4-carbonyl)-3b,4,4a,5-tetrahydro-1H-cyclopropa[3,4]cyclopenta[1,2-c]pyrazol-1-yl)ethanone]
8.83 | Cc1cccc(N2CCN(C(=O)Cn3nc(C(=O)N4CC[C@H](O)[C@H](F)C4)c4c3C[C@H]3C[C@@H]43)C3(CC3)C2)c1C [Example 364, 1-(7-(2,3-dimethylphenyl)-4,7-diazaspiro[2.5]octan-4-yl)-2-((3bR,4aR)-3-((3R,4S)-3-fluoro-4-hydroxypiperidine-1-carbonyl)-3b,4,4a,5-tetrahydro-1H-cyclopropa[3,4]cyclopenta[1,2-c]pyrazol-1-yl)ethanone]
8.92 | Cc1cccc(N2CCN(C(=O)Cn3nc(C(=O)N4CC[C@@H](O)[C@@H](F)C4)c4c3C[C@H]3C[C@@H]43)C3(CC3)C2)c1C [Example 365, 1-(7-(2,3-dimethylphenyl)-4,7-diazapspiro[2.5]octan-4-yl)-2-((3bR,4aR)-3-((3S,4R)-3-fluoro-4-hydroxypiperidine-1-carbonyl)-3b,4,4a,5-tetrahydro-1H-cyclopropa[3,4]cyclopenta[1,2-c]pyrazol-1-yl)ethanone]
